Measured values taken from ChEMBL document CHEMBL2073889, “ATP-dependent transport of beta-estradiol 17-(beta-D-glucuronide) in rat canalicular membrane vesicles” (Am J Physiol, 1996).

Molecular target: Multidrug resistance protein 1a (Rattus norvegicus) (UniProt Q6PSM0)
Test: TP_TRANSPORTER: uptake, inhibited by C219 antibody in bile canalicular membrane vesicles from SD rat
Type: functional, cell membranes
Conditions: Sprague-Dawley, Bile canalicular membrane vesicle

Chain of Multidrug resistance protein 1a (Rattus norvegicus) (Q6PSM0 as listed by the source): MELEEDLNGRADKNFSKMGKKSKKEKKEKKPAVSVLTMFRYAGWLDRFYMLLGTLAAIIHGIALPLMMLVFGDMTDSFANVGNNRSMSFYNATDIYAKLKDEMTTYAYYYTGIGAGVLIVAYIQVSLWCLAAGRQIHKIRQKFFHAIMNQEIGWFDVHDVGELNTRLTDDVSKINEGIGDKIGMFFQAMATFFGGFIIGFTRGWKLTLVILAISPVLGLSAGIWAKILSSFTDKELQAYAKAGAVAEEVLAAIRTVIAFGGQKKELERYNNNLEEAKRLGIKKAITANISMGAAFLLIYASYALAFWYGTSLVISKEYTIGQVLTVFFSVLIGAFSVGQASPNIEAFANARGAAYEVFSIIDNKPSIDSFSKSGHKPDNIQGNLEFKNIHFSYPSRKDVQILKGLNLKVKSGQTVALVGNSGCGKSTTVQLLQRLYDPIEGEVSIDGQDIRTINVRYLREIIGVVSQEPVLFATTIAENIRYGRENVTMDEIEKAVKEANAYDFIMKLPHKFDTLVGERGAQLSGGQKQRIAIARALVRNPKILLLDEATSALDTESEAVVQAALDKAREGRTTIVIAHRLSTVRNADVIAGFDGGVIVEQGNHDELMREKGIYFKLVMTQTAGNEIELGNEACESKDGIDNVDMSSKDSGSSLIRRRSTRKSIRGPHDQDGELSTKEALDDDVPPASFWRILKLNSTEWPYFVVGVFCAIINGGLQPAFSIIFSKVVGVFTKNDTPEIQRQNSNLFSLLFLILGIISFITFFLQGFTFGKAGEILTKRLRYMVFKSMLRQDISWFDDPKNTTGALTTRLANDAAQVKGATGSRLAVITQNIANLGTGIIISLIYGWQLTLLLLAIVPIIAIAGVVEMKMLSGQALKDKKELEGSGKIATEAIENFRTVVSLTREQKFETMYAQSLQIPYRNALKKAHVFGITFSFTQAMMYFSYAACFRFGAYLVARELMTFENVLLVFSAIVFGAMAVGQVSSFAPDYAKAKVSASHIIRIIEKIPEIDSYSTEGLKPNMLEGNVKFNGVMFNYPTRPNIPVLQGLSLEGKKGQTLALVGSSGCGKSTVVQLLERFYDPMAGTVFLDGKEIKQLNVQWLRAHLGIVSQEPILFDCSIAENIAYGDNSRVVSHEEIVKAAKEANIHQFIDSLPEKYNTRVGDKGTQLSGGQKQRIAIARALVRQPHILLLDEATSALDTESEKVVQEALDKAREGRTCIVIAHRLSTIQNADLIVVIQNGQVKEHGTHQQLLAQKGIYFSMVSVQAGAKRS

## C[C@]12CC[C@@H]3c4ccc(O)cc4CC[C@H]3[C@@H]1CC[C@@H]2O[C@@H]1O[C@H](C(=O)O)[C@@H](O)[C@H](O)[C@H]1O
  Activity: substrate [+]
